Test [1] deals with Normal Human Astrocytes. Put plainly: Cell Death ELISAplus, Aβ-induced apoptosis (fragmented nucleosomes). The note with it: 1 day. The class given is cell-based. The method, then: The extent of apoptosis caused by Aβ in the presence or absence of MTZ was assessed by quantitation of nucleosome formation using Cell Death ELISA^plus (Roche Applied Science, Indianapolis, Ind.). Briefly, after incubation with the peptides, plates were centrifuged in a Beckman J-6B centrifuge (10 min; 1,000 rpm), cells lysed, and DNA-histone complexes (nucleosomes) quantitated by Cell Death ELISA, as previously described (Fossati et al., 2010).

Test [2] addresses T1, Aβ42 and Aβ40-Q22 (Homo sapiens, UniProt P05067, E693Q).
T1 construct: purchased James I. Elliott at Yale University (custom chemical peptide synthesis)
Put plainly: Native gel electrophoresis and Western blot of Aβ aggregation species. The note with it: presence or absence of the CAI; 1 hour, 1 day, 3 days. On the procedure: Electrophoretic analysis for assessment of peptide aggregation in the presence or absence of MTZ was performed under native conditions using 5-30% gradient polyacrylamide gels, in absence of SDS, using 25 mM Tris/glycine, pH 8.8, as running buffer, as previously described (Fossati et al., 2010). Aβ oligomerization patterns were visualized by subsequent WB analysis. Briefly, proteins were electrotransferred to nitrocellulose membranes ([…] pore size; Hybond-ECL, GE Healthcare Life Sciences, Piscataway, N.J.) at 400 mA for 2.5 h, using 10 mM 3-cyclohexylamino-1-propanesulfonic acid (CAPS; Sigma) buffer, pH 11.0, containing 10% (v/v) methanol. After blocking with 5% nonfat milk in TBS containing 0.1% Tween 20 (TBST), membranes were immunoreacted with a combination of mouse monoclonal anti-Aβ antibodies 4G8 (epitope: residues Aβ18-22) and 6E10 (epitope: residues Aβ3-8), both from Covance (Princeton, N.J.), at 1:3000 dilution each, followed by HRP-labeled anti-mouse IgG and ECL chemistry (Fossati et al., 2010).
On the technique in general: In western blotting, separated proteins are transferred to a membrane and probed.

The test system of test [3] is cerebral microvascular endothelial cells (D3). Put plainly: Aβ-induced mitochondrial Cytochrome C release. It is filed as cell-based, human. The note with it: Example 3. On the procedure:
Both EC and SH-SY5Y cells were plated on to glass chamber slides (Thermo Fisher Scientific), pre-coated with either collagen-I or poly-d-lysine (for ECs and SH-SY5Y cells respectively). After seeding, cells were allowed to attach for 1 day before treatment with the different peptides for 1-3 days, as above. Cells were washed with ice-cold PBS, fixed with 4% paraformaldehyde (10 min at room temperature) and blocked for 1 h with 20 mg/ml BSA in PBST (PBS containing 0.3% Triton X-100). Slides were further incubated with mouse anti-CytC monoclonal antibody (BD Biosciences; 1:200 dilution in PBST containing 5 mg/ml BSA; 2 h at room temperature) followed by Alexa Fluor® 488-conjugated anti-(mouse IgG) antibody (Invitrogen; 1:200 in PBST with 5 mg/ml BSA; 1 h at room temperature). Fluorescence signals were visualized in a Nikon Eclipse E 800 deconvolution microscope using NIS Elements software (Nikon Instruments) for image acquisition and processing, and AutoQuant (Media Cybernetics) for 3D deconvolution. The effect of methazolamide in preventing the Aβ-induced release of CytC from the mitochondria into the cytoplasm was evaluated in EC and SH-SY5Y cultures. […]

Test [4] has as its system caspase 3/7 in glial cells. In words: Active caspase 3 staining and Caspase-Glo 3/7 activity after Aβ challenge. It is filed as cell-based, human. The following applies: Aβ co-incubated with MTZ at both concentrations (100, 300 μM); 24 hours. The method, then: (§1) Caspase 9 and caspase 3/7 activation was measured by luminescent assays (Caspase-Glo 9 and caspase-Glo 3/7, Promega, Madison, Wis.), in cells treated with the Aβ peptides in DMEM without FBS. Briefly, 10,000 cells/well were plated in 96 wells plates and incubated for 24 hours with the freshly solubilized Aβ peptides. Caspase-Glo reagent was added to the cell cultures resulting in cell lysis, followed by caspase cleavage of the substrate and generation of a luminescent signal produced by the luciferase reaction. After 40 minutes incubation, the amount of caspase activity was evaluated in a plate-reading luminometer (Synergy HT Multi-Mode Microplate Reader, Biotek, Winooski, Vt.) as described in (Fossati et al., 2012b). To inhibit non-specific background activity, the proteasome inhibitor MG-132 was added to the Caspase-Glo reagent before the experiment as indicated by the manufacturer. In all cases results are expressed as fold-change compared to untreated control cells.
(§2) SHSY-5Y and Glioma cells were plated on chamber slides as above. Slides were pre-coated with Poly-D-Lysine 30 μg/ml for 2 hours for SHSY-5Y cells. […]

Test [5] relates to caspase 3/7 in neuronal SHSY-5Y cells. Described as above. The class given is cell-based, human. The note with it: Aβ co-incubated with MTZ at both concentrations (100, 300 μM); 24 hours. The method, then:
as §1, §2

For test [6], the system named is mitochondria isolated from glial cells. Put plainly: Mitochondrial H2O2 production (Amplex Red) after Aβ challenge. The class given is cell-based, human. On the procedure:
Production of H2O2 from isolated mitochondria was measured using Amplex Red Hydrogen Peroxide/Peroxidase Assay (Life Technologies). Cells were treated with Aβ peptides, in the presence or absence of MTZ. After 16 hours of treatment, the mitochondrial fraction was separated from nuclear and cytoplasmic fractions as previously described (Fossati et al., 2013). Protein concentration in the mitochondrial fraction was measured by BCA assay (Thermo Scientific, Rockford, Ill.), in order to include the same amount of mitochondria in each sample. Functional mitochondrial fractions were distributed in a 96 well plate with Reaction Buffer and Amplex Red solution following the manufacturer's specifications. The plate was incubated in the dark at room temperature for 30 minutes before colorimetric evaluation of the Amplex Red reaction at 560 nm.

Test [7] concerns Glioma cells. Put plainly: Cellular ROS (CellROX). It is filed as cell-based, human. The following applies: Aβ42 in the presence or absence of MTZ; 24 hours. On the procedure: For the last 30 minutes, the cells were incubated in the experimental medium at 37° C. with 5 μM CellROX Deep Red (Life Technologies) and 1 μg/ml Hoechst Stain (Immunochemistry Technologies, Bloomington, Minn.), as described by the manufacturer, followed by washes. Fluorescence was measured using a FlexStation 3 Multi-Mode Microplate Reader (Molecular Devices, Sunnyvale, Calif.).

For `CC(=O)/N=c1/sc(S(N)(=O)=O)nn1C` [MTZ, methazolamide], the “DNA fragmentation after Aβ challenge” value in test [1] (100 μM MTZ) is “significantly effective at reducing DNA fragmentation”. Moreover, the “Aβ-mediated increase in fragmented nucleosomes” value in test [1] (300 μM MTZ, Aβ42 10 μM) was “completely prevented”. Besides, in test [2], the “Aβ aggregation species in native gels” value is reported as “did not differ”. The “CytC localization (immunocytochemistry)” value in test [3] (Aβ40-Q22 25 μM or Aβ40/42 WT 10 μM, 24 h) is reported as “retained in the mitochondria”. The “release of CytC, cells with diffuse green staining as % of total cells” value in test [3] (FIG. 23B) is reported as “prevented”. Also, the “active-caspase 3 staining and activity of caspases 3/7” value in test [4] and in test [5] was “greatly suppressed” in each case. Besides, the “Aβ-induced increase in H2O2 production by isolated mitochondria” value in test [6] (Example 1, Aβ with MTZ) is given as “completely reverted”. In addition, the “H2O2 production, drug alone” value in test [6] (MTZ alone, untreated cells) was “did not have any effect”. For the same molecule, the “levels of cellular ROS (CellROX)” value in test [7] is given as “did not significantly change”.

The values above are taken from patent US10780094B2, “Use of carbonic anhydrase inhibitors for treatment of neurological and psychiatric disorders” (New York University, priority 2016, dated 2020).
